Results as given in patent US20160008298A1, “XANTHOHUMOL-BASED COMPOUNDS AND COMPOSITIONS THEREOF, AND METHODS OF MAKING AND USING THE SAME” (Oregon State University, priority 2014, published 2016).

Columns and labels:
[1] = test system: C57BL6/J mice; test: Plasma metabolites at sacrifice; assay type: in vivo, mouse; conditions: 14 weeks, 30 mg/kg/day; for Mean fasting plasma glucose at time of sacrifice: 6 hour fast, control 158.2±29.6; for Insulin level average: control 1.01±0.44; for Average plasma triglycerides: control 87.5±6.6; for Plasma cholesterol average: control 173.9±31.9
Protocol: The total number of C57BL6/J mice was 48, with 12 mice belonging to each of 4 treatment groups. Duration of the feeding was 14 weeks. Mouse feed contained high fat content (60% of kCal), and was supplemented with XN, DXN, or TXN in the treatment groups. XN, DXN and TXN content within the mouse diet were designed to deliver a dose of 30 mg/kg/day body weight. Food intake was measured three times per week by weighing the food pellet before placement in the cage, and at the time of feed changing by weighing uneaten food. Mice were unrestricted in dietary intake, being allowed to eat as much food as desired. Mice were weighed once per week. Groups included low dose (30 mg/kg) XN, DXN, TXN and no supplement control. Mice were maintained in accordance with the Oregon State University Institutional Animal Care and Use Committee (IACUC) regulations. One mouse was maintained on a standard AIN-93M chow diet to be used as a healthy reference during glucose tolerance assays.
Plasma was collected at sacrifice (14 weeks) to analyze for plasma glucose, triglycerides, cholesterol and insulin. Plasma glucose was assayed using the Wako Autokit Glucose kit (Wako Pure Chemical Industries, Ltd.). […] Samples were allowed to incubate for 5 minutes, and then the absorbance of each well was measured at a wavelength of 505 nm using a SpectraMax 190 spectrophotometer. Glucose was calculated using a 6-point calibration curve containing concentrations of 0, 25, 50, 100, 200 and 400 mg/dL.
Plasma triglycerides were measured using the Infinity™ Triglycerides Reagent kit (Thermo Fisher Scientific, Inc.). […] Absorbance at 500 nm was then measured on a SpectraMax 190 spectrophotometer. Triglyceride levels were calculated from a 6-point calibration curve.
Plasma cholesterol was measured using the Infinity™ Cholesterol Liquid Stable Reagent assay kit (Thermo Fisher Scientific, Inc.). Five μL of plasma from each sample was combined with 195 μL of Infinity™ Cholesterol Liquid Stable Reagent (50 mM phosphate buffer (pH 6.7) containing 200 U/L cholesterol oxidase, 500 U/L cholesterol esterase, 300 U/L peroxidase (horseradish), 0.25 mM 4-aminoantipyrine, 10 mM hydroxybenzoic acid) and incubated for 5 minutes at room temperature. Cholesterol absorbance was then measured using a SpectraMax 190 spectrophotometer at 500 nm, and concentrations were calculated using a 6-point calibration curve.
Plasma insulin levels were assayed using the ALPCO 80-INSMS-E01 mouse insulin enzyme-linked immunosorbent assay (ELISA) kit (ALPCO diagnostics, Salem, N.H.). Ten μL of plasma from each sample was loaded into a 96-well plate (provided in kit) and combined with 75 μL of provided conjugate buffer. The plate was placed on a shaker and incubated for 2 hours at room temperature while shaking at 800 rpm. The buffer was then discarded and the wells were washed 5 times with 100 μL of provided wash buffer. […] After incubation, 100 μL of stop solution was added to each well, and the plate was analyzed on a SpectraMax 190 spectrophotometer at 450 nm. Sample insulin concentrations were calculated using a 6-point calibration curve.

[2] = test system: C2C12 skeletal muscle cells; test: Seahorse OCR and ECAR measurements after oligomycin; assay type: cell-based, mouse; conditions: for increase in oxygen consumption: as summarised in Example 2
Protocol: OCR and ECAR measurements were performed with a Seahorse XF 24 Analyzer (Seahorse Bioscience). Cells were plated 24 hours prior to measurements at a density of 40,000 cells per well within growth medium in a 24-well plate. The cells were then allowed to adhere for 24 hours (37° C., 5% CO2). Prior to the assay, the cells were washed with freshly prepared running media consisting of Seahorse XF Assay medium (Seahorse Bioscience, North America, USA), 10 mM glucose and 1 mM sodium pyruvate. The pH of the medium was adjusted to 7.4 with 1 M NaOH. The cells were then equilibrated for one hour at 37° C. without CO2. The compounds were injected during the assay; OCR and ECAR were measured at 9 minutes measurement intervals. The solutions of oligomycin, FCCP, XN, DXN and TXN were freshly prepared in running medium. The final concentrations in the wells were: 1 μM for oligomycin, 5 μM for XN, DXN and TXN and 2, 5, 8, 25 μM for the dose response experiments with DXN. Ethanol was added to the control wells not to exceed a final concentration of 0.1%. All the compounds were tested in quadruplicate on the 24-well plate. XN is highly non-polar and FBS can be used to dissolve XN. Thus, XN, DXN and TXN were first dissolved in ethanol and the resulting solutions were diluted 100-fold in running medium containing 1% of FBS. After a further 10-fold dilution into the media in wells, only 0.1% of FBS was present during OCR measurements. […] The concentration of oligomycin and the cell density used were selected based on preliminary experiments.
Seahorse data were analyzed in SAS 9.2 (SAS Institute Inc., Cary, N.C.). To show a consistent baseline, OCR values (in pmol/min/mg protein) and ECAR values (in mpH/min/mg protein) for each value were divided prior to statistical analysis by the average of the four pre oligomycin treatment values (0, 8, 17, and 25 minutes) for the corresponding well and are shown as % pre oligomycin values. The original scale for OCR and for ECAR values was utilized for the OCR/ECAR ratio (in pMol/mpH). To account for repeated measures within wells over time, a repeated-measures-in-time design using ANOVA procedures in PROC MIXED was used. Fixed effects in the model were treatment (control, 2 μM DXN, 5 μM XN, 5 μM DXN, and 5 μM TXN for the compound study and control, 2, 5, 8, and 25 μM DXN for the DXN dosage study), time (0, 8, 17, 25, 34, 43, 52, 60, 69, 78, 86, and 95 minutes), and their interaction. The random effect was the experiment (5 experiments for the compound study and 3 experiments for the DXN dosage study). To account for repeated measures within wells over time, a first order homogeneous variance-covariance matrix [AR(1)] was fitted for each well. Using the ESTIMATE statement, a priori contrasts were constructed by comparing the changes in compound treated cells from the last two time points prior to compound treatment (average 52 and 60 minutes) to the changes in control cells during the same time period. This was done for each compound and dosage for 69, 78, 86, and 95 minutes separately and for all four time points combined. […] A P-value of 0.05 was considered statistically significant and is shown as star in the graphs (FIG. 5).

[3] = test system: C2C12 muscle mouse cells; test: Seahorse cell titration assay; assay type: cell-based; conditions: 2 μM, 20,000 cells/well
Protocol: As advised by Seahorce Bioscience, running a cell titration assay with FCCP at different concentrations prior to any Seahorse experiment is an important step to determine proper cell density for the cell line used. Then, oligomycin was tested at different concentrations at the proper cell density in order to determine the optimal working concentration. These optimization and titration assays offered starting conditions in determining the uncoupling effects on the mitochondria.
In the cell titration assay, cells were plated at 10,000, 20,000 and 40,000 cells/wells and FCCP was injected at 0.3 μM or 0.5 μM. […] DXN was also injected at 2 μM at 20,000 cells/well to have an idea of its potential effects on OCR.

[4] = 5 μM, after oligomycin 1 μM, compound study, five independent experiments
[5] = 5 μM, oligomycin 1 μM, compound study, average of five independent experiments

Structure (SMILES): COc1cc(O)c(CCC(C)C)c(O)c1C(=O)CCc1ccc(O)cc1 [TXN, tetrahydroxanthohumol]
- Mean fasting plasma glucose at time of sacrifice [1]: 116.1 ± 24.1 mg/dL
- Insulin level average [1]: 0.500 ± 0.24 ng/mL
- Average plasma triglycerides [1]: 76.4 ± 7.8 mg/dL
- Plasma cholesterol average [1]: 160.7 ± 30.7 mg/dL
- decrease in ECAR [2, 4]: 27.5±2.0%
- increase in oxygen consumption ([2]; 5 μM): 50%
- increase in OCR in the presence of oligomycin [2, 5]: 56.8±6.9%
- effect on OCR at higher concentrations [2]: tended to inhibit OCR

Structure (SMILES): COc1cc(O)c(CC=C(C)C)c(O)c1C(=O)/C=C/c1ccc(O)cc1 [XN, xanthohumol]
- Mean fasting plasma glucose at time of sacrifice [1]: 169.1 ± 28.7 mg/dL
- Insulin level average [1]: 1.19 ± 0.68 ng/mL
- Average plasma triglycerides [1]: 80.7 ± 4.2 mg/dL
- Plasma cholesterol average [1]: 196.2 ± 28.3 mg/dL
- decrease in ECAR [2, 4]: 4.7±2.0%
- increase in oxygen consumption ([2]; 5 μM): approximately 10%
- increase in OCR in the presence of oligomycin [2, 5]: 11.3±6.9%
- effect on OCR at higher concentrations [2]: tended to inhibit OCR

Structure (SMILES): COc1cc(O)c(CC=C(C)C)c(O)c1C(=O)CCc1ccc(O)cc1 [DXN, α,β-dihydroxanthohumol]
- increase of OCR [3]: 204 % of the baseline
- Mean fasting plasma glucose at time of sacrifice [1]: 150.5 ± 45.0 mg/dL
- Insulin level average [1]: 1.04 ± 0.77 ng/mL
- Average plasma triglycerides [1]: 84.5 ± 4.9 mg/dL
- Plasma cholesterol average [1]: 167.2 ± 33.3 mg/dL
- decrease in ECAR ([2]; 2 μM, DXN dosage study): 8.0±2.4%
- increase in OCR in the presence of oligomycin ([2]; 2 μM, DXN dosage study, three independent experiments): 6±6%
- decrease in ECAR ([2]; 2 μM, after oligomycin 1 μM, compound study, five independent experiments): 5.9±2.0%
- increase in OCR in the presence of oligomycin ([2]; 2 μM, oligomycin 1 μM, compound study, average of five independent experiments): 8.9±7.0%
- decrease in ECAR ([2]; 5 μM, DXN dosage study): 25.2±2.3%
- increase in OCR in the presence of oligomycin ([2]; 5 μM, DXN dosage study, three independent experiments): 30.8±6.0%
- decrease in ECAR [2, 4]: 17.8±2.0%
- increase in oxygen consumption ([2]; 5 μM): 20%
- increase in OCR in the presence of oligomycin [2, 5]: 28.7±6.9%
- decrease in ECAR ([2]; 8 μM, DXN dosage study): 31.6±2.3%
- increase in OCR in the presence of oligomycin ([2]; 8 μM, DXN dosage study, three independent experiments): 55.1±6.0%
- OCR response in the presence of oligomycin ([2]; 25 μM, DXN dosage study): initial increase in the OCR that was immediately followed by a sharp decrease
- decrease in ECAR ([2]; 25 μM, DXN dosage study): 49.8±2.3%
